Tests used:
Assay in all cases: relative viability (nuclei count vs DMSO), 5 days (fraction); higher = more cells survive
Crenolanib + Alpelisib = compound: CC1(COc2ccc3c(c2)ncn3-c2ccc3cccc(N4CCC(N)CC4)c3n2)COC1 [Crenolanib] + Cc1nc(NC(=O)N2CCC[C@H]2C(N)=O)sc1-c1ccnc(C(C)(C)C(F)(F)F)c1 [Alpelisib] (partner 2 µM)
How it was run: (§1)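 For relative viability, nuclei counts in treated wells were divided by those in vehicle wells. Lung cancer cell lines had been pin-tool dosed in 1536-well plates the day after seeding and cultured for 5 days, then fixed and stained in one step (final 0.05% Triton X-100, 1% formaldehyde, 1 ug/ml Hoechst) and imaged at 4×. Doses were one drug alone or a fixed anchor-drug dose plus five library-drug doses (not always all listed) in √10 steps, and values are duplicate-plate medians.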

Tivantinib + Palbociclib = compound: O=C1NC(=O)[C@@H](c2cn3c4c(cccc24)CCC3)[C@@H]1c1c[nH]c2ccccc12 [Tivantinib] + CC(=O)c1c(C)c2cnc(Nc3ccc(N4CCNCC4)cn3)nc2n(C2CCCC2)c1=O [Palbociclib] (partner 0.5 µM)
How it was run: as §1

Tivantinib + Bortezomib = compound: O=C1NC(=O)[C@@H](c2cn3c4c(cccc24)CCC3)[C@@H]1c1c[nH]c2ccccc12 [Tivantinib] + CC(C)C[C@H](NC(=O)[C@H](Cc1ccccc1)NC(=O)c1cnccn1)B(O)O [Bortezomib] (partner 0.002 µM)
How it was run: as §1

Tivantinib + AZD7762 = compound: O=C1NC(=O)[C@@H](c2cn3c4c(cccc24)CCC3)[C@@H]1c1c[nH]c2ccccc12 [Tivantinib] + NC(=O)Nc1cc(-c2cccc(F)c2)sc1C(=O)N[C@H]1CCCNC1 [AZD7762] (partner 0.2 µM)
How it was run: as §1

| Cell Line | relative viability (Crenolanib + Alpelisib; first compound 0.01 µM) | relative viability (Crenolanib + Alpelisib; first compound 0.03162 µM) | relative viability (Crenolanib + Alpelisib; first compound 0.1 µM) | relative viability (Crenolanib + Alpelisib; first compound 0.3162 µM) | relative viability (Crenolanib + Alpelisib; first compound 1 µM) | relative viability (Tivantinib + Palbociclib; first compound 0.01 µM) | relative viability (Tivantinib + Palbociclib; first compound 0.03162 µM) | relative viability (Tivantinib + Palbociclib; first compound 0.1 µM) | relative viability (Tivantinib + Palbociclib; first compound 0.3162 µM) | relative viability (Tivantinib + Bortezomib; first compound 0.01 µM) | relative viability (Tivantinib + Bortezomib; first compound 0.03162 µM) | relative viability (Tivantinib + Bortezomib; first compound 0.1 µM) | relative viability (Tivantinib + Bortezomib; first compound 0.3162 µM) | relative viability (Tivantinib + AZD7762; first compound 0.01 µM) | relative viability (Tivantinib + AZD7762; first compound 0.03162 µM) | relative viability (Tivantinib + AZD7762; first compound 0.1 µM) | relative viability (Tivantinib + AZD7762; first compound 0.3162 µM) |
| --- | --- | --- | --- | --- | --- | --- | --- | --- | --- | --- | --- | --- | --- | --- | --- | --- | --- |
| ABC-1 | 1.06 | 1.13 | 0.772 | 0.999 | 0.898 | 0.689 | 0.567 | 0.577 | 0.46 | 0.287 | 0.243 | 0.337 | 0.301 | 0.8 | 0.912 | 0.708 | 0.685 |
| NCI-H2170 | 0.856 | 0.815 | 0.814 | 0.951 | 0.912 | 0.398 | 0.411 | 0.363 |  |  |  |  |  | 0.878 | 0.822 | 0.794 |  |
| NCI-H1355 | 0.845 | 0.803 | 0.911 | 1.02 | 0.748 | 0.395 | 0.374 | 0.385 | 0.384 | 1.31 | 1.18 | 1.17 | 1.21 | 0.756 | 0.819 | 0.794 | 0.637 |
| EBC-1 | 0.89 | 0.78 | 0.868 | 0.798 | 0.845 |  |  |  |  | 0.611 | 0.596 | 0.557 | 0.465 |  |  |  |  |
| NCI-H2009 | 1.12 | 1.19 | 1.06 | 1.18 | 1.07 | 0.267 | 0.186 | 0.126 | 0.207 | 1.01 | 0.646 | 1.01 | 1.1 |  |  |  |  |
| NCI-H1563 | 0.99 | 0.924 | 1.1 | 1.07 | 0.905 |  |  |  |  | 0.831 | 0.748 | 0.897 | 0.809 |  |  |  |  |
| NCI-H2342 |  |  |  |  |  | 0.498 | 0.49 | 0.719 | 0.438 |  |  |  |  | 0.505 | 0.515 | 0.432 | 0.39 |
| ChaGo-K-1 |  |  |  |  |  | 0.95 | 0.946 | 0.93 | 0.925 | 0.96 | 0.957 | 0.941 | 0.989 | 0.781 | 0.871 | 0.862 | 0.861 |
| NCI-H661 | 0.894 | 0.609 | 0.479 | 0.597 | 0.542 | 0.453 | 0.395 | 0.397 | 0.315 | 0.897 | 0.782 | 0.9 |  |  |  |  |  |
| COR-L23 | 0.854 | 0.78 | 0.602 | 0.966 | 0.731 | 0.343 | 0.304 | 0.268 | 0.325 | 0.977 | 0.93 | 0.942 | 0.996 |  |  |  |  |
| COR-L 105 | 1.02 | 1.25 | 0.811 | 1.03 | 1.02 | 0.441 | 0.385 | 0.436 | 0.375 | 0.754 | 0.398 | 0.671 | 0.354 |  |  |  |  |
| LK-2 | 0.637 | 0.924 | 1.1 | 0.956 | 0.997 | 0.643 | 0.472 | 0.69 | 0.369 |  |  |  |  | 0.447 | 0.214 | 0.288 | 0.363 |
| NCI-H1944 | 0.881 | 0.892 | 0.742 | 0.927 | 0.819 | 0.366 | 0.327 | 0.324 | 0.297 |  |  |  |  | 0.513 | 0.511 | 0.472 | 0.426 |

From the supplement of paper PMC10307832
